# Measurements published in ChEMBL document CHEMBL5154865, “Antibiotic natural product hunanamycin A: Lead identification towards anti-Salmonella agents” (Eur J Med Chem, 2022).
# Key:
# Salmonella enterica = assay: Antibacterial activity against Salmonella enterica ATCC 6539 assessed as microbial cell viability incubated for 24 hr by quantification of ATP multimode plate reader method; format: functional
# [1] = Solubility of compound in DMSO at pH 10.2 after 5 mins measured by HPLC analysis; format: physicochemical
# [2] = Solubility of compound in DMSO at pH 4.5 after 5 mins measured by HPLC analysis; format: physicochemical
# [3] = Metabolic stability in human liver microsomes measured at 1 uM after 30 mins by LC-MS/MS analysis; format: ADME, Microsome; conditions: read-out: Stability
# [4] = Solubility of compound in DMSO at pH 1.2 after 5 mins measured by HPLC analysis; format: physicochemical
# [5] = Metabolic stability in mouse liver microsomes measured at 1 uM after 30 mins by LC-MS/MS analysis; format: ADME, Microsome; conditions: read-out: Stability
# [6] = Solubility of compound in DMSO at pH 7.4 after 5 mins measured by HPLC analysis; format: physicochemical
# [7] = Stability in human plasma measured after 60 mins LC-MS/MS analysis; format: ADME, cell-free; conditions: read-out: Stability
# [8] = Plasma protein binding in human measured at 150 uM preincubated for 30 mins followed by addition of dialysis buffer measured after 4 hrs by LC-MS/MS analysis; format: ADME, cell-free; conditions: read-out: PPB (converted)
# [9] = Acute toxicity in Swiss albino mouse assessed as mortality at 2 g/Kg, po administered daily for 14 days; format: organism-based; conditions: in vivo, 2000 mg/kg, 336 h, time 14 day
# [10] = Acute toxicity in Swiss albino mouse assessed as lethal dose administered orally daily for 14 days; conditions: in vivo, route po, time 14 day
# [11] = Solubility of compound in DMSO at pH 2.2 after 5 mins measured by HPLC analysis; format: physicochemical
compound,measurement,setting,value
CC(C)=CCn1c(=O)c(=O)n(C[C@H](O)[C@H](O)[C@H](O)CO)c2cc(C)c(C)cc21,MIC,Salmonella enterica,16 µg/mL
Cn1nnc(Cn2c(=O)c(=O)n3c4c(cccc42)C(C)(C)CC3)n1,MIC,Salmonella enterica,16 µg/mL
CC1(C)CCn2c(=O)c(=O)n(CCO)c3cccc1c32,MIC,Salmonella enterica,24 µg/mL
Cc1cc2c3c(c1C)C(C)(C)CCn3c(=O)c(=O)n2C[C@H](O)[C@H](O)[C@H](O)CO,solubility at 5 min,[1],49.3 µM
same,MIC,Salmonella enterica,8 µg/mL
same,solubility at 5 min,[2],50 µM
same,"remaining at 0.5 h, 1 µM",[3],100%
same,solubility at 5 min,[4],50.8 µM
same,"remaining at 0.5 h, 1 µM",[5],99.6%
same,solubility at 5 min,[6],49.4 µM
same,remaining at 1 h,[7],100%
same,"fraction unbound at 4 h, 150 µM",[8],0.412
same,Activity,[9],Non-Toxic
same,LD50 at 336 h,[10],> 2000 mg/kg
same,solubility at 5 min,[11],50.4 µM
CCOC(=O)Cn1cc(Cn2c(=O)c(=O)n3c4c(cccc42)C(C)(C)CC3)nn1,MIC,Salmonella enterica,16 µg/mL
CC1(C)CCn2c(=O)n(Cc3cn(CCO)nn3)c3cccc1c32,MIC,Salmonella enterica,16 µg/mL
CC1(C)CCn2c(=O)n(Cc3nn[nH]n3)c3cccc1c32,MIC,Salmonella enterica,> 32 µg/mL
CO[C@@H]1O[C@H](Cn2cc(Cn3c(=O)c(=O)n4c5c(cccc53)C(C)(C)CC4)nn2)[C@H]2OC(=O)O[C@@H]12,MIC,Salmonella enterica,32 µg/mL
CCOC(=O)Cn1c(=O)c(=O)n2c3c(cccc31)C(C)(C)CC2,MIC,Salmonella enterica,8 µg/mL
CC1(C)CCn2c(=O)c(=O)n(C[C@H](O)[C@H](O)[C@H](O)CO)c3cccc1c32,MIC,Salmonella enterica,16 µg/mL
CO[C@@H]1O[C@H](Cn2c(=O)n3c4c(cccc42)C(C)(C)CC3)[C@H]2OC(=O)O[C@@H]12,MIC,Salmonella enterica,32 µg/mL
CO[C@@H]1O[C@H](Cn2cc(Cn3c(=O)c(=O)n4c5c(cccc53)C(C)(C)CC4)nn2)[C@@H](O)[C@H]1O,MIC,Salmonella enterica,32 µg/mL
CCOC(=O)Cn1c(=O)c(=O)n(C[C@H](O)[C@H](O)[C@H](O)CO)c2cc(C)c(C)cc21,MIC,Salmonella enterica,16 µg/mL
CC1(C)CCn2c(=O)c(=O)n(Cc3nn[nH]n3)c3cccc1c32,solubility at 5 min,[1],51.8 µM
same,MIC,Salmonella enterica,4 µg/mL
same,solubility at 5 min,[2],50.5 µM
same,"remaining at 0.5 h, 1 µM",[3],98.9%
same,solubility at 5 min,[4],51.8 µM
same,"remaining at 0.5 h, 1 µM",[5],96.1%
same,solubility at 5 min,[6],51.8 µM
same,remaining at 1 h,[7],99.9%
same,"fraction unbound at 4 h, 150 µM",[8],0.0205
same,solubility at 5 min,[11],51.2 µM
CC1(C)CCn2c(=O)n(CC(O)CO)c3cccc1c32 (configuration not stated),MIC,Salmonella enterica,16 µg/mL
Cc1cc2c(cc1C)n(C[C@H](O)[C@H](O)[C@H](O)CO)c(=O)c(=O)n2CC=C1CCCCC1,MIC,Salmonella enterica,32 µg/mL
CCOC(=O)Cn1cc(Cn2c(=O)n3c4c(cccc42)C(C)(C)CC3)nn1,MIC,Salmonella enterica,8 µg/mL
Cc1cc2c(cc1C)n(C[C@H](O)[C@H](O)[C@H](O)CO)c(=O)c(=O)n2CCC1CCCCC1,MIC,Salmonella enterica,8 µg/mL
CC1(C)CCn2c(=O)c(OC[C@H](O)[C@H](O)[C@H](O)CO)nc3cccc1c32,MIC,Salmonella enterica,16 µg/mL
CC1(C)CCn2c(=O)[nH]c(=O)c3cccc1c32,MIC,Salmonella enterica,16 µg/mL
Cc1cc2c3c(c1C)C(C)(C)CCn3c(=O)c(=O)n2CC(O)CO (configuration not stated),MIC,Salmonella enterica,16 µg/mL
CC1(C)CCn2c(=O)n(Cc3cn(C[C@H](O)[C@H](O)[C@H](O)CO)nn3)c3cccc1c32,MIC,Salmonella enterica,32 µg/mL
CO[C@@H]1O[C@H](Cn2c(=O)n3c4c(cccc42)C(C)(C)CC3)[C@@H](O)[C@H]1O,solubility at 5 min,[1],48.6 µM
same,MIC,Salmonella enterica,2 µg/mL
same,solubility at 5 min,[2],48.8 µM
same,"remaining at 0.5 h, 1 µM",[3],90%
same,solubility at 5 min,[4],41.2 µM
same,"remaining at 0.5 h, 1 µM",[5],74.3%
same,solubility at 5 min,[6],48.5 µM
same,remaining at 1 h,[7],98%
same,"fraction unbound at 4 h, 150 µM",[8],0.338
same,solubility at 5 min,[11],48.4 µM
CC1(C)CCn2c(=O)n(C[C@H](O)[C@H](O)[C@H](O)CO)c3cccc1c32,solubility at 5 min,[1],47.6 µM
same,MIC,Salmonella enterica,4 µg/mL
same,solubility at 5 min,[2],47.8 µM
same,"remaining at 0.5 h, 1 µM",[3],100%
same,solubility at 5 min,[4],48.2 µM
same,"remaining at 0.5 h, 1 µM",[5],96.4%
same,solubility at 5 min,[6],47.4 µM
same,remaining at 1 h,[7],99.9%
same,"fraction unbound at 4 h, 150 µM",[8],0.578
same,solubility at 5 min,[11],48 µM
Cc1cc2[nH]c(=O)c(=O)n(C[C@H](O)[C@H](O)[C@H](O)CO)c2cc1C,MIC,Salmonella enterica,> 32 µg/mL
CC1(C)CCn2c(=O)c(=O)n(CCCCO)c3cccc1c32,MIC,Salmonella enterica,32 µg/mL
CC1(C)CCn2c(=O)c(=O)n(CC(N)=O)c3cccc1c32,MIC,Salmonella enterica,24 µg/mL
CC1(C)CCn2c(=O)n(CCCO)c3cccc1c32,MIC,Salmonella enterica,> 32 µg/mL
CC1(C)CCn2c(=O)c(=O)n(Cc3ccccc3)c3cccc1c32,MIC,Salmonella enterica,32 µg/mL
CO[C@@H]1O[C@H](Cn2c(=O)c(=O)n3c4c(cccc42)C(C)(C)CC3)[C@@H](O)[C@H]1O,MIC,Salmonella enterica,16 µg/mL
CO[C@@H]1O[C@H](Cn2c(=O)n3c4c(cccc42)C(C)(C)CC3)[C@@H](OC)[C@H]1OC,MIC,Salmonella enterica,> 32 µg/mL
CC1(C)CCn2c(=O)c(=O)n(CC(=O)O)c3cccc1c32,MIC,Salmonella enterica,16 µg/mL
C=CCn1c(=O)c(=O)n(C[C@H](O)[C@H](O)[C@H](O)CO)c2cc(C)c(C)cc21,MIC,Salmonella enterica,16 µg/mL
CC1(C)CCn2c(=O)c(=O)[nH]c3cccc1c32,MIC,Salmonella enterica,16 µg/mL
CC1(C)CCn2c(=O)n(C[C@H](O)[C@@H](O)CO)c3cccc1c32,MIC,Salmonella enterica,16 µg/mL
CCn1c(=O)c(=O)n(C[C@H](O)[C@H](O)[C@H](O)CO)c2cc(C)c(C)cc21,MIC,Salmonella enterica,> 32 µg/mL
C#CCn1c(=O)c2cccc3c2n(c1=O)CCC3(C)C,MIC,Salmonella enterica,24 µg/mL
CCOC(=O)Cn1cc(Cn2c(=O)c3cccc4c3n(c2=O)CCC4(C)C)nn1,MIC,Salmonella enterica,> 32 µg/mL
CCCCCn1c(=O)c(=O)n2c3c(cccc31)C(C)(C)CC2,MIC,Salmonella enterica,32 µg/mL
Cc1cc2nc(OC[C@H](O)[C@H](O)[C@H](O)CO)c(=O)n3c2c(c1C)C(C)(C)CC3,MIC,Salmonella enterica,8 µg/mL
CC1(C)CCn2c(=O)c(=O)n(Cc3ccccn3)c3cccc1c32,MIC,Salmonella enterica,24 µg/mL
CC1(C)CCn2c(=O)c(=O)n(CC(O)CO)c3cccc1c32 (configuration not stated),MIC,Salmonella enterica,8 µg/mL
CC1(C)CCn2c(=O)c(=O)n(CCCO)c3cccc1c32,solubility at 5 min,[1],50.2 µM
same,MIC,Salmonella enterica,1 µg/mL
same,solubility at 5 min,[2],50.1 µM
same,"remaining at 0.5 h, 1 µM",[3],100%
same,solubility at 5 min,[4],51.2 µM
same,"remaining at 0.5 h, 1 µM",[5],96.1%
same,solubility at 5 min,[6],50.1 µM
same,remaining at 1 h,[7],82.4%
same,"fraction unbound at 4 h, 150 µM",[8],0.389
same,Activity,[9],Non-Toxic
same,LD50 at 336 h,[10],> 2000 mg/kg
same,solubility at 5 min,[11],50.8 µM
CC1(C)CCn2c(=O)n(Cc3cn([C@@H]4O[C@H](CO)[C@@H](O)[C@H]4O)nn3)c3cccc1c32,MIC,Salmonella enterica,32 µg/mL
"CC1(C)CCn2c(=O)c(OCC(O)CO)nc3cccc1c32 (single isomer, unassigned)",MIC,Salmonella enterica,16 µg/mL
"CO[C@@H]1O[C@H](Cn2cc(Cn3c(=O)c4cccc5c4n(c3=O)CCC5(C)C)nn2)[C@@H](O)[C@H]1O (single isomer, unassigned)",MIC,Salmonella enterica,> 32 µg/mL
"CC1(C)CCn2c(=O)n(Cc3cn([C@@H]4OC(CO)C(O)C4O)nn3)c(=O)c3cccc1c32 (single isomer, unassigned)",MIC,Salmonella enterica,> 32 µg/mL
"CC1(C)CCn2c(=O)c(=O)n(Cc3cn([C@@H]4OC(CO)C(O)C4O)nn3)c3cccc1c32 (single isomer, unassigned)",MIC,Salmonella enterica,32 µg/mL
